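Tested at 5 concentrations; 48 h exposure; 96-well plates; endpoints linearly interpolated, else capped at highest concentration. GI50 = concentration required for 50% inhibition of growth.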 The source made the active and inactive calls. Rule as the data show it: active = GI50 up to about 1.1 µM and inactive = higher.
How the values were obtained:
Assay in all cases: NCI anticancer screen, dose series, 48 h
A549 = system: A549
HL-60 = system: HL-60
HT-29 = system: HT-29
KM12 = system: KM12
M14 = system: M14
Malme-3M = system: Malme-3M
NCI-H460 = system: NCI-H460
OVCAR-3 = system: OVCAR-3
SF-268 = system: SF-268
SF-295 = system: SF-295
SK-MEL-2 = system: SK-MEL-2
SNB-19 = system: SNB-19
SNB-75 = system: SNB-75
SR = system: SR
TK-10 = system: TK-10
U-251 = system: U-251
Hs-578T = system: Hs-578T
MDA-MB-231 = system: MDA-MB-231
MCF7 = system: MCF7

Structure (SMILES) | GI50 (A549) | GI50 (HL-60) | GI50 (HT-29) | GI50 (KM12) | GI50 (M14) | GI50 (Malme-3M) | GI50 (NCI-H460) | GI50 (OVCAR-3) | GI50 (SF-268) | GI50 (SF-295) | GI50 (SK-MEL-2) | GI50 (SNB-19) | GI50 (SNB-75) | GI50 (SR) | GI50 (TK-10) | GI50 (U-251) | GI50 (Hs-578T) | GI50 (MDA-MB-231) | GI50 (MCF7)
Cn1cnc2[nH]c(=O)[nH]c(=S)c21 | > 100 µM (inactive) | > 100 µM (inactive) | > 100 µM (inactive) | > 100 µM (inactive) | > 100 µM (inactive) | > 100 µM (inactive) | > 100 µM (inactive) | > 100 µM (inactive) | > 100 µM (inactive) | > 100 µM (inactive) | > 100 µM (inactive) | > 100 µM (inactive) | > 100 µM (inactive) | > 100 µM (inactive) | > 100 µM (inactive) | > 100 µM (inactive) | – | – | –
N#C/C(C(=O)Nc1ccccc1)=C(/N)N1CCCC1 | > 100 µM (inactive) | > 100 µM (inactive) | 88.1 µM (inactive) | > 100 µM (inactive) | > 100 µM (inactive) | > 100 µM (inactive) | > 100 µM (inactive) | > 100 µM (inactive) | > 100 µM (inactive) | > 100 µM (inactive) | > 100 µM (inactive) | > 100 µM (inactive) | – | > 100 µM (inactive) | > 100 µM (inactive) | > 100 µM (inactive) | > 100 µM (inactive) | > 100 µM (inactive) | –
O=C1C(c2ccccc2)=C(c2ccccc2)C(c2ccc(Cc3ccc(C4=C(c5ccccc5)C(=O)C(c5ccccc5)=C4c4ccccc4)cc3)cc2)=C1c1ccccc1 | > 100 µM (inactive) | > 100 µM (inactive) | > 100 µM (inactive) | > 100 µM (inactive) | – | 74.1 µM (inactive) | > 100 µM (inactive) | > 100 µM (inactive) | > 100 µM (inactive) | 69.5 µM (inactive) | > 100 µM (inactive) | > 100 µM (inactive) | > 100 µM (inactive) | > 100 µM (inactive) | 48.6 µM (inactive) | > 100 µM (inactive) | – | – | –
COc1ccc(Nc2c[nH]c(=O)[nH]c2=O)cc1 | > 100 µM (inactive) | > 100 µM (inactive) | > 100 µM (inactive) | > 100 µM (inactive) | > 100 µM (inactive) | > 100 µM (inactive) | – | > 100 µM (inactive) | – | > 100 µM (inactive) | > 100 µM (inactive) | > 100 µM (inactive) | > 100 µM (inactive) | – | > 100 µM (inactive) | > 100 µM (inactive) | – | > 100 µM (inactive) | > 100 µM (inactive)
NC(CCCCN/C=C1/N=C(c2ccccc2)OC1=O)C(=O)O (configuration not stated) | > 100 µM (inactive) | > 100 µM (inactive) | > 100 µM (inactive) | – | > 100 µM (inactive) | > 100 µM (inactive) | > 100 µM (inactive) | > 100 µM (inactive) | > 100 µM (inactive) | > 100 µM (inactive) | > 100 µM (inactive) | > 100 µM (inactive) | > 100 µM (inactive) | > 100 µM (inactive) | > 100 µM (inactive) | > 100 µM (inactive) | – | – | –
C/C(=N\NC(=N)N)C(CN(CC(C)C)CC(C)C)C(=O)Nc1ccc(C)cc1C (configuration not stated) | > 100 µM (inactive) | 91.8 µM (inactive) | > 100 µM (inactive) | > 100 µM (inactive) | > 100 µM (inactive) | > 100 µM (inactive) | > 100 µM (inactive) | > 100 µM (inactive) | > 100 µM (inactive) | > 100 µM (inactive) | > 100 µM (inactive) | > 100 µM (inactive) | > 100 µM (inactive) | > 100 µM (inactive) | > 100 µM (inactive) | > 100 µM (inactive) | – | – | –
NNC(=O)C(=O)N/N=C(\CCC(=O)Nc1ccc(Cl)cc1)Cc1nc2ccccc2s1 | 45.4 µM (inactive) | 4.34 µM (inactive) | 44.8 µM (inactive) | 51.1 µM (inactive) | 19.7 µM (inactive) | 44.7 µM (inactive) | 28 µM (inactive) | 18.2 µM (inactive) | 25.3 µM (inactive) | 36.6 µM (inactive) | 28.9 µM (inactive) | 30.5 µM (inactive) | 81.1 µM (inactive) | 11.9 µM (inactive) | 56.1 µM (inactive) | 18.8 µM (inactive) | – | – | –
O=C(N/C(=C\c1ccc([N+](=O)[O-])cc1)c1nc2c(O)nc(S)nc2[nH]1)c1ccccc1 | > 100 µM (inactive) | – | > 100 µM (inactive) | > 100 µM (inactive) | > 100 µM (inactive) | > 100 µM (inactive) | – | > 100 µM (inactive) | > 100 µM (inactive) | > 100 µM (inactive) | > 100 µM (inactive) | > 100 µM (inactive) | – | > 100 µM (inactive) | > 100 µM (inactive) | > 100 µM (inactive) | – | – | –
O=C(CCCN1CC=C(n2c(=O)[nH]c3ccccc32)CC1)c1cccs1 | > 100 µM (inactive) | > 100 µM (inactive) | 52.4 µM (inactive) | > 100 µM (inactive) | > 100 µM (inactive) | > 100 µM (inactive) | 63.5 µM (inactive) | > 100 µM (inactive) | > 100 µM (inactive) | > 100 µM (inactive) | > 100 µM (inactive) | > 100 µM (inactive) | > 100 µM (inactive) | > 100 µM (inactive) | 67.5 µM (inactive) | > 100 µM (inactive) | – | > 100 µM (inactive) | 11.8 µM (inactive)
COC(=O)NC(=O)c1cn(C2OC(CO)C(O)C2O)c(=O)[nH]c1=O (configuration not stated) | > 100 µM (inactive) | > 100 µM (inactive) | > 100 µM (inactive) | > 100 µM (inactive) | > 100 µM (inactive) | > 100 µM (inactive) | > 100 µM (inactive) | > 100 µM (inactive) | > 100 µM (inactive) | > 100 µM (inactive) | > 100 µM (inactive) | > 100 µM (inactive) | > 100 µM (inactive) | > 100 µM (inactive) | > 100 µM (inactive) | > 100 µM (inactive) | – | – | –
O=c1c2ccccc2c(=O)n2n1-c1cccc(c1)CSSCc1cccc-2c1 | > 10 µM (inactive) | – | > 10 µM (inactive) | > 10 µM (inactive) | > 10 µM (inactive) | > 10 µM (inactive) | > 10 µM (inactive) | > 10 µM (inactive) | > 10 µM (inactive) | 43.4 µM (inactive) | > 10 µM (inactive) | > 10 µM (inactive) | > 10 µM (inactive) | > 10 µM (inactive) | > 10 µM (inactive) | 92 µM (inactive) | – | – | –
CC(=O)NNc1nc(C)c(C(=O)/C=C/c2ccccc2Cl)s1 | > 100 µM (inactive) | > 100 µM (inactive) | > 100 µM (inactive) | > 100 µM (inactive) | – | > 100 µM (inactive) | > 100 µM (inactive) | > 100 µM (inactive) | > 100 µM (inactive) | > 100 µM (inactive) | > 100 µM (inactive) | > 100 µM (inactive) | > 100 µM (inactive) | – | > 100 µM (inactive) | > 100 µM (inactive) | – | – | –
Nc1ccc(C(=O)N/C(=C\C=C\c2ccco2)c2nc3c4c(ccc3[nH]2)C(=O)c2ccccc2C4=O)cc1 | 21 µM (inactive) | – | 49.7 µM (inactive) | 13.6 µM (inactive) | 55 µM (inactive) | 85.9 µM (inactive) | – | 32.9 µM (inactive) | 10.2 µM (inactive) | 31.7 µM (inactive) | 26.5 µM (inactive) | 39.7 µM (inactive) | 14.2 µM (inactive) | – | 23.1 µM (inactive) | 31.3 µM (inactive) | – | – | –
CCCCCCCCCCCCOC(=N)N1CCOCC1 | 15.8 µM (inactive) | 1.55 µM (inactive) | 1.82 µM (inactive) | 5.53 µM (inactive) | 3.95 µM (inactive) | 19 µM (inactive) | 15 µM (inactive) | 14.9 µM (inactive) | 15 µM (inactive) | 17 µM (inactive) | 9.51 µM (inactive) | 18.5 µM (inactive) | 13.7 µM (inactive) | 1.56 µM (inactive) | 16.8 µM (inactive) | 9.46 µM (inactive) | – | – | –
c1ccc(C2=NN(c3ccccc3)C3(S2)SC(c2ccccc2)(c2ccccc2)c2ccccc23)cc1 (configuration not stated) | > 100 µM (inactive) | 0.804 µM (active) | > 100 µM (inactive) | > 100 µM (inactive) | > 100 µM (inactive) | > 100 µM (inactive) | > 100 µM (inactive) | > 100 µM (inactive) | > 100 µM (inactive) | > 100 µM (inactive) | > 100 µM (inactive) | > 100 µM (inactive) | > 100 µM (inactive) | – | > 100 µM (inactive) | > 100 µM (inactive) | – | – | –
OCCN(CCO)c1cccc(N(CCO)CCO)c1 | > 100 µM (inactive) | > 100 µM (inactive) | – | > 100 µM (inactive) | > 100 µM (inactive) | – | > 100 µM (inactive) | > 100 µM (inactive) | > 100 µM (inactive) | > 100 µM (inactive) | > 100 µM (inactive) | 39.2 µM (inactive) | > 100 µM (inactive) | > 100 µM (inactive) | > 100 µM (inactive) | > 100 µM (inactive) | – | – | –
CC(C)c1cccc(C(C)C)c1NC(=O)C(=O)Cc1nc2ccc([N+](=O)[O-])cc2nc1O | 53.6 µM (inactive) | > 100 µM (inactive) | > 100 µM (inactive) | 13.5 µM (inactive) | 28.1 µM (inactive) | > 100 µM (inactive) | 70.1 µM (inactive) | > 100 µM (inactive) | – | > 100 µM (inactive) | 61 µM (inactive) | > 100 µM (inactive) | > 100 µM (inactive) | – | > 100 µM (inactive) | – | – | – | –
